Data published in PMC5840146, “Structure-Activity Relationship Analysis of 3-Phenylcoumarin-Based Monoamine Oxidase B Inhibitors” (Frontiers in Chemistry, 2018).

Assays:
recombinant human HSD1 = target: T1, recombinant human HSD1 (Homo sapiens, UniProt P14061); assay: HSD1 inhibition by HPLC with tritium labeled estrone/estradiol; assay type: biochemical; conditions: 1 μM
T1 construct: made in house; host or cells: Sf9 insect cells
T1 sequence (P14061 1-328): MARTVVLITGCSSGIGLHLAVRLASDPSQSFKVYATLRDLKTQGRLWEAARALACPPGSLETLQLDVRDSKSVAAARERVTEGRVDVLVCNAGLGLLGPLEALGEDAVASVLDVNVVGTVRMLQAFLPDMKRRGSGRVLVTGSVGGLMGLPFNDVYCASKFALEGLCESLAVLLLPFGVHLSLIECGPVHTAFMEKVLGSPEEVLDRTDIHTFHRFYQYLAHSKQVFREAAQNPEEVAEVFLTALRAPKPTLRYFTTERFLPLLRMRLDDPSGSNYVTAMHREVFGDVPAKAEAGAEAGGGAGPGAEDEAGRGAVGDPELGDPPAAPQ

ERα = target: T2, ERα (Homo sapiens, UniProt P03372); assay: PolarScreen ER Alpha Competitor Assay (fluorescence polarization); assay type: binding; conditions: for inhibition at 10 µM / ER inhibition %: 10 μM
T2 construct: purchased Life Technologies
T2 sequence (P03372 1-595): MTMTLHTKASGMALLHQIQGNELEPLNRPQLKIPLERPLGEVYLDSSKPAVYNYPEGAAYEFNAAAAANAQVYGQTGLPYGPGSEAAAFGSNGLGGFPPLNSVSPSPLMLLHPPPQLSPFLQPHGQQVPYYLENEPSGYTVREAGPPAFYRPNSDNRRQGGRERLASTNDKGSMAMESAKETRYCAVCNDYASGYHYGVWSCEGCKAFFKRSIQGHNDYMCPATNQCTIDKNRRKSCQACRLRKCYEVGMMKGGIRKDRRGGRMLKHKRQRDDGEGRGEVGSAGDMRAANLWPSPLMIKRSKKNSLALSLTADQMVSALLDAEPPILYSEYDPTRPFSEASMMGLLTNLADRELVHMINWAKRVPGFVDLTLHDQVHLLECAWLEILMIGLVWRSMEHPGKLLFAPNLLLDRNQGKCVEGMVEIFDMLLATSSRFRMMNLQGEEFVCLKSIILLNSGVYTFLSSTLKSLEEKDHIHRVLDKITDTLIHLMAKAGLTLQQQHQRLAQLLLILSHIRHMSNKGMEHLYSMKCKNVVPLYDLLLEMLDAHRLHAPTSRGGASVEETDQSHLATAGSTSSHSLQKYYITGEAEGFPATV
Experimental: The pIC50 values for the derivatives (Table 1, Supplementary Table S1) were measured with green PolarScreen™ ER Alpha Competitor Assay (Life Technologies, CA, The United States of America) kit, following the manufacturer protocol as previously described (Niinivehmas et al., [2016]). The final concentration of the compounds ranged from 0.0007 to 10 000 nM in the dilution series which were performed as duplicates. The molecules were combined with 25 nM ERα and 4.5 nM fluormone in the assay buffer and placed on black low volume 384-well assay plate with NBS surface (Corning, NY, The United States of America). After mixing the assay plate, it was incubated for 2 h in RT. The fluorescence polarization was measured using excitation wave length 485 and emission wave length 535 with bandwidths of 25/20 nm on a 2104 EnVision® Multilabel Plate Reader which had EnVision Workstation version 1.7 (PerkinElmer, MA, The United States of America).

MAO-A = target: T3, MAO-A (Homo sapiens, UniProt P21397); assay: continuous spectrophotometric MAO-A inhibition assay; assay type: biochemical; conditions: for MAO-A inhibition %: 100 µM, 1h
T3 construct: purchased Sigma-Aldrich
T3 sequence (P21397 1-527): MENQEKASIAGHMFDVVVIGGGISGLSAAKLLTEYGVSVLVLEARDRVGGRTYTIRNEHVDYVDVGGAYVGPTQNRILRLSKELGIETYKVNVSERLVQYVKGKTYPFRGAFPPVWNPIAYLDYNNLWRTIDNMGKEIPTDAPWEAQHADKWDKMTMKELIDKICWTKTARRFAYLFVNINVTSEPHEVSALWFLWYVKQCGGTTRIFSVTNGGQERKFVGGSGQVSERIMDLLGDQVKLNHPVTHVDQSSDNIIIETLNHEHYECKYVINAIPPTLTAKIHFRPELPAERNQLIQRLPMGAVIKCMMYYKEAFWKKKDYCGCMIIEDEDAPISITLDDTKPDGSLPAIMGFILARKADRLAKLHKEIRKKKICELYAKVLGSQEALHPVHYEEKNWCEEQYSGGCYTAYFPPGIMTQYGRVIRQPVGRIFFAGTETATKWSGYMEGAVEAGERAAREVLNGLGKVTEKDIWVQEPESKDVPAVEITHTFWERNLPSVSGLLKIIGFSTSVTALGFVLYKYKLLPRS
Experimental: Both monoamine oxidase A (MAO-A) and B (MAO-B) protein and the reagents for the chromogenic solution of vanillic acid (4-hydroxy-3-methoxylbenzoic acid, 97% purity), 4-aminoantipyrine (reagent grade), horseradish peroxidase and the substrate tyramine hydrochloride (minimum 99% purity) as well as the potassium phosphate buffer, which was prepared using potassium phosphate dibasic trihydrate (≥99% ReagentPlus™) and potassium phosphate monobasic (minimum 98% purity, molecular biology tested), were purchased from Sigma-Aldrich (St. Louis, MO, USA) for the spectrophotometric assay.
The protocol for continuous spectrophotometric assay (Holt et al., [1997]) was followed in the activity measurements. The assay was performed in 0.2 M potassium phosphate buffer pH 7.6 on 96-well plates (Nunc™ 96F microwell plate without a lid, Nunc A/S, Roskilde, DK) in 200 μl total volume. The chromogenic solution containing 1 mM vanillic acid, 500 μM 4-aminoantipyrine and 8 U/ml horseradish peroxidase in 0.2 M potassium phosphate buffer pH 7.6 was mixed anew for each measurement. 5 mM tyramine solution was used as the substrate. In order to determine the activity of both MAO-B and MAO-A, concentration series as duplicates were prepared. The protein was combined with the chromogenic solution and incubated 30 min at 37°C. The background signal was measured using multilabel reader (Victor^TM X4, 2030 Multilabel Reader, PerkinElmer, Waltham, MA, USA) at A490 before reaching the total 200 μl volume by adding 20 μl of tyramine to final concentration of 0.5 mM on the plate. As a result, the final concentration of the chromogenic solution on the plate was 250 μM vanillic acid, 125 μM 4-aminoantipyrine and 2 U/ml horseradish peroxide. After adding the substrate, the plates were measured 300 times every 15 s using 1 s exposure time. The device was set to 37°C for the duration of the experiment.
The experiment conditions should produce absorbance change of ~0.35 (Holt et al., [1997]). […] The same wide panel of coumarin derivatives was additionally used to analyze the MAO-A inhibition at 100 μM (Table 1, Supplementary Table S1).
The measured data was then fitted on a curve using non-linear regression with the equation for log[inhibitor] vs. response. The IC50 values were therefore determined based on the curve fit. The fitted curves are shown on –log scale in Supplementary Figures S1, S2.

| Compound | inhibition at 1 µM (recombinant human HSD1) | inhibition at 10 µM (ERα) | inhibition at 100 µM (MAO-A) | HSD1 inhibition % (recombinant human HSD1) | ER inhibition % (ERα) | MAO-A inhibition % (MAO-A) | ER activity (in words) (ERα) |
| --- | --- | --- | --- | --- | --- | --- | --- |
| COc1cccc(-c2cc3cc(OC)ccc3oc2=O)c1 [derivative 8, 6-methoxy-3-(3-methoxyphenyl)-2H-chromen-2-one] | 0% | 0% | 0% |  |  |  |  |
| Cc1ccc2oc(=O)c(-c3ccc(C(F)(F)F)cc3)cc2c1 [derivative 5, 6-methyl-3-(4-(trifluoromethyl)phenyl)-2H-chromen-2-one] | 0% | 1.08% | 0% |  |  |  |  |
| COc1ccc2cc(-c3ccc(O)c(F)c3)c(=O)oc2c1 [derivative 20, 3-(3-fluoro-4-hydroxyphenyl)-7-methoxy-2H-chromen-2-one] | 46% | 86.1% | 0% |  |  |  | prominent |
| Cc1ccc2oc(=O)c(-c3ccc(F)cc3)cc2c1 [derivative 23, 3-(4-fluorophenyl)-6-methyl-2H-chromen-2-one] | 12 to 33% | 0% | 0% | 11% |  |  |  |
| COc1ccc2oc(=O)c(-c3ccc(N(C)C)cc3)cc2c1 [derivative 18, 3-(4-(dimethylamino)phenyl)-6-methoxy-2H-chromen-2-one] | 1% | 0% | 0% |  |  |  |  |
| COc1ccc2oc(=O)c(-c3ccc(O)c(F)c3)cc2c1 [derivative 22, 3-(3-fluoro-4-hydroxyphenyl)-6-methoxy-2H-chromen-2-one] | 54% | 55.4% | 0% |  |  |  | prominent |
| COc1ccc2oc(=O)c(-c3ccc(F)cc3)cc2c1 [derivative 21, 3-(4-fluorophenyl)-6-methoxy-2H-chromen-2-one] | 0% | 0% | 0% |  |  |  |  |
| COc1cccc(-c2cc3ccccc3oc2=O)c1 [derivative 11, 3-(3-methoxyphenyl)-2H-chromen-2-one] | 4% | 0.29% | 0% |  |  |  |  |
| O=c1oc2ccc(O)cc2cc1-c1ccc(F)cc1 [derivative 24, 3-(4-fluorophenyl)-6-hydroxy-2H-chromen-2-one] | 20% | 0% | 14.2% |  |  |  |  |
| COc1ccc(-c2cc3ccc(O)cc3oc2=O)cc1 [derivative 12, 7-hydroxy-3-(4-methoxyphenyl)-2H-chromen-2-one] | 3% | 91.3% | 24.6% |  |  |  | prominent |
| COc1ccc2cc(-c3cc(F)c(F)cc3F)c(=O)oc2c1 [derivative 16, 7-methoxy-3-(2,4,5-trifluorophenyl)-2H-chromen-2-one] | 33% | 8.8% |  |  |  |  |  |
| COc1ccc2oc(=O)c(-c3cc(F)c(F)cc3F)cc2c1 [derivative 15, 6-methoxy-3-(2,4,5-trifluorophenyl)-2H-chromen-2-one] | 12% | 0% | 0% |  |  |  |  |

The remaining lines, values ahead:

| inhibition at 1 µM (recombinant human HSD1) | inhibition at 10 µM (ERα) | inhibition at 100 µM (MAO-A) | HSD1 inhibition % (recombinant human HSD1) | ER inhibition % (ERα) | MAO-A inhibition % (MAO-A) | ER activity (in words) (ERα) | Compound |
| --- | --- | --- | --- | --- | --- | --- | --- |
|  |  |  | 76.70% | 0.00% | 3.66% |  | COc1ccc(-c2cc3cccc(O)c3oc2=O)cc1 [derivative 33] |
|  |  |  | 48.20% | 58.53% | 0.00% | prominent | O=c1oc2cc(O)ccc2cc1-c1ccc(O)cc1 [derivative 30] |
|  |  |  | 0.00% | 100.63% | 12.56% | prominent | O=c1oc2cc(O)ccc2cc1-c1ccc(F)cc1 [derivative 39] |
|  |  |  |  | 101.40% | 9.52% | prominent | O=c1oc2cc(O)ccc2cc1-c1ccccc1 [derivative 41] |
|  |  |  | 56.00% | 0.00% | 4.14% |  | O=c1oc2ccccc2cc1-c1cccc(O)c1 [derivative 31] |
|  |  |  | 0.30% | 57.12% | 0.00% | prominent | CC(=O)Oc1ccc2cc(-c3ccc(F)cc3)c(=O)oc2c1 [derivative 28] |
|  |  |  | 12.50% | 70.96% | 43.83% | prominent | Cc1ccc(-c2cc3ccc(O)cc3oc2=O)cc1 [derivative 27] |
|  |  |  | 5.40% | 74.22% | 0.00% | prominent | O=c1oc2ccccc2cc1-c1ccc(O)cc1 [derivative 29] |
|  |  |  | 83.90% | 98.41% | 0.00% | prominent | O=c1oc2ccc(O)cc2cc1-c1ccc(O)cc1 [derivative 48] |
|  |  |  | 0.00% | 0.00% | 8.11% |  | COc1ccc2oc(=O)c(-c3ccc(Oc4ccc(F)cc4)cc3)cc2c1 [derivative 46] |
|  |  |  | 49.10% | 18.53% | 13.11% |  | O=c1oc2ccc(O)cc2cc1-c1cccc(O)c1 [derivative 38] |
|  |  |  | 3.80% | 0.00% | 0.87% |  | COc1ccc(-c2cc3ccccc3oc2=O)cc1 [derivative 36] |
|  |  |  | 3.50% | 0.00% | 0.00% |  | COc1cccc(-c2cc3ccc(OC)cc3oc2=O)c1 [derivative 25] |
